In ChEMBL document CHEMBL1268952, “Design, synthesis, and evaluation of indolinones as inhibitors of the transforming growth factor β receptor I (TGFβRI)” (J Med Chem, 2010):

How the values were obtained:
TGF-beta receptor type-1 [1] = target: T1, TGF-beta receptor type-1 (Homo sapiens, UniProt P36897); assay: Inhibition of TGFbeta receptor
T1 sequence (P36897 whole entry): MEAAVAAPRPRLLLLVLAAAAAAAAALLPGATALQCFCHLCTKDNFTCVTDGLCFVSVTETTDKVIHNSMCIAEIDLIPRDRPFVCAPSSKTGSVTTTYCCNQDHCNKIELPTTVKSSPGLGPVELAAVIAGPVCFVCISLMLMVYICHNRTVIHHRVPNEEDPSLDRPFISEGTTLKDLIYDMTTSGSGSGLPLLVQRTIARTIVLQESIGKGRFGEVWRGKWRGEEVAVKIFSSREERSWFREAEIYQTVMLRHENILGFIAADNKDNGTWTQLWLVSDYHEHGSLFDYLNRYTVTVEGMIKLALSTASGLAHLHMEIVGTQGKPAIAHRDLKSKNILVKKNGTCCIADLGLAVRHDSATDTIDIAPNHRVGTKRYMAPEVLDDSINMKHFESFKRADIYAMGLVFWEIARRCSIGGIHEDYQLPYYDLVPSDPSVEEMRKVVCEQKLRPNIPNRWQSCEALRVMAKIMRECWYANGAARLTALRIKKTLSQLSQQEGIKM

TGF-beta receptor type-1 [2] = target: T1, TGF-beta receptor type-1; assay: Inhibition of TGFbeta receptor in human HaCaT cells assessed as Smad phosphorylation by ELISA; format: cell-based
HaCaT = assay: Cytotoxicity against human HaCaT cells
[3] = target: Platelet-derived growth factor receptor alpha (Homo sapiens, UniProt P16234); assay: Inhibition of PDGFRalpha
Chain of Platelet-derived growth factor receptor alpha (P16234 whole entry): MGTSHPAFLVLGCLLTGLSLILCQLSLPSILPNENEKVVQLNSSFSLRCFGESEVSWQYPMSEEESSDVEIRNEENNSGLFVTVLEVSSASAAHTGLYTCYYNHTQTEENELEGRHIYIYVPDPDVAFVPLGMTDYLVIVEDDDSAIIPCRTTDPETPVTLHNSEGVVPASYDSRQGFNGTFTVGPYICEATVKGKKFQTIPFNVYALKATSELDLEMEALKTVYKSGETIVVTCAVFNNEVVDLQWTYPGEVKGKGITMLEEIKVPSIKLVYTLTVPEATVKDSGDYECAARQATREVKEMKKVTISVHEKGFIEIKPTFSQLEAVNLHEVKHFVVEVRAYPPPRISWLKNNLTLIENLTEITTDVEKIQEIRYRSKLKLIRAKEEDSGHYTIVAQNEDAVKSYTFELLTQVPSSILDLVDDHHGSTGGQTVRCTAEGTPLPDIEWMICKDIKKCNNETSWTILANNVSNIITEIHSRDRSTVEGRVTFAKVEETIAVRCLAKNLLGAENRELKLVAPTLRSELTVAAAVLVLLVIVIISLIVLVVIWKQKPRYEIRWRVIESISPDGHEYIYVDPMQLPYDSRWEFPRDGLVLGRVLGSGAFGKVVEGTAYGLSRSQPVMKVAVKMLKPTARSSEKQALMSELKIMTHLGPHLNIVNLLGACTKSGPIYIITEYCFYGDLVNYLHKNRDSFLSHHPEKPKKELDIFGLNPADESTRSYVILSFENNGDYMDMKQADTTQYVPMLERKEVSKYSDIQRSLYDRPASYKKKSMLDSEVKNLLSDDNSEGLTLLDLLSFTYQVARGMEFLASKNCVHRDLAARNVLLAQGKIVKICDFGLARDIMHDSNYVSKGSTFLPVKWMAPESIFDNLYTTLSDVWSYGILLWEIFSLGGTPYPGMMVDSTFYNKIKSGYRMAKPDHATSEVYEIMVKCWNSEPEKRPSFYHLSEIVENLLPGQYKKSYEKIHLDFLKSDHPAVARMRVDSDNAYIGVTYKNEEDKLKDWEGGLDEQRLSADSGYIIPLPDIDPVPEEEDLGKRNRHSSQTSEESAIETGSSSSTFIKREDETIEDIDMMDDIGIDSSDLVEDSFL

| SMILES | IC50 (TGF-beta receptor type-1 [1]) | EC50 (TGF-beta receptor type-1 [2]) | IC50 (HaCaT) | IC50 [3] |
| --- | --- | --- | --- | --- |
| CCNC(=O)c1ccc2c(c1)NC(=O)/C2=C(\Nc1ccc(C(=O)NCCN(CC)CC)cc1)c1ccccc1 | 0.033 µM | 0.505 µM | – | – |
| CCCCNC(=O)c1ccc2c(c1)NC(=O)/C2=C(\Nc1ccc(CN2CCCCC2)cc1)c1ccccc1 | 0.091 µM | 1.06 µM | – | – |
| CCN(C)C(=O)c1ccc2c(c1)NC(=O)/C2=C(\Nc1ccc(N(CCN(C)C)S(C)(=O)=O)cc1)c1ccccc1 | 0.007 µM | 0.209 µM | – | – |
| CNC(=O)c1ccc2c(c1)NC(=O)/C2=C(\Nc1ccc(CN2CCCCC2)cc1)c1ccccc1 | 0.032 µM | – | – | – |
| CCNC(=O)c1ccc2c(c1)NC(=O)/C2=C\Nc1ccc(N(CCCN(C)C)C(C)=O)cc1 | 0.017 µM | 0.597 µM | – | – |
| CCNC(=O)c1ccc2c(c1)NC(=O)/C2=C(\Nc1ccc(CCN(C)C)cc1)c1ccccc1 | 0.047 µM | 0.135 µM | – | – |
| NC(=O)c1ccc2c(c1)NC(=O)/C2=C(\Nc1ccc(CN2CCCCC2)cc1)c1ccccc1 | 0.369 µM | > 50 µM | – | – |
| CCNC(=O)c1ccc2c(c1)NC(=O)/C2=C(\Nc1ccc(N(CCCN(C)C)C(C)=O)cc1)c1ccccc1 | 0.003 µM | 1.25 µM | – | – |
| CCN(C)C(=O)c1ccc2c(c1)NC(=O)/C2=C(\Nc1ccc(CCN(C)C)cc1)c1ccccc1 | 0.064 µM | 0.259 µM | > 1 µM | – |
| CCN(CC)Cc1cccc(N/C(=C2\C(=O)Nc3cc(C(=O)N(C)CC)ccc32)c2ccccc2)c1 | 0.616 µM | – | – | – |
| CN(C)C(=O)c1ccc2c(c1)NC(=O)/C2=C(\Nc1ccc(CN2CCCCC2)cc1)c1ccccc1 | 0.035 µM | 0.246 µM | – | – |
| CCN(C)C(=O)c1ccc2c(c1)NC(=O)/C2=C(\Nc1ccc(C(=O)OC)cc1)c1ccccc1 | 1.97 µM | – | – | – |
| O=C1Nc2cc(C(=O)NCc3ccccc3)ccc2/C1=C(/Nc1ccc(CN2CCCCC2)cc1)c1ccccc1 | 1.53 µM | – | – | – |
| CCN(C)C(=O)c1ccc2c(c1)NC(=O)/C2=C(\Nc1ccc(N(CCN(C)C)C(C)=O)cc1)c1ccccc1 | 0.008 µM | 0.102 µM | – | – |
| CCN(C)C(=O)c1ccc2c(c1)NC(=O)/C2=C(\Nc1ccc(C(=O)O)cc1)c1ccccc1 | 0.782 µM | – | – | – |
| CCNC(=O)c1ccc2c(c1)NC(=O)/C2=C(\Nc1ccc(CN2CCCCC2)cc1)c1ccccc1 | 0.024 µM | 0.075 µM | – | – |
| CCN(CC)C(=O)c1ccc2c(c1)NC(=O)/C2=C(\Nc1ccc(CN2CCCCC2)cc1)c1ccccc1 | 0.625 µM | – | – | – |
| CCNC(=O)c1ccc2c(c1)NC(=O)/C2=C\Nc1ccc(N(C)C(=O)CN2CCN(C)CC2)cc1 | 0.015 µM | 2.18 µM | – | > 5 µM |

| SMILES | IC50 (TGF-beta receptor type-1 [1]) | EC50 (TGF-beta receptor type-1 [2]) | IC50 (HaCaT) | IC50 [3] |
| --- | --- | --- | --- | --- |
| CC(C)NC(=O)c1ccc2c(c1)NC(=O)/C2=C(\Nc1ccc(CN2CCCCC2)cc1)c1ccccc1 | 0.318 µM | 0.708 µM | – | – |
| CCN(C)C(=O)c1ccc2c(c1)NC(=O)/C2=C(\NC1CCCCC1)c1ccccc1 | > 50 µM | > 10 µM | – | > 5 µM |
| CCNC(=O)c1ccc2c(c1)NC(=O)/C2=C(\Nc1ccc(N(C)C(=O)CN(C)C)cc1)c1ccccc1 | 0.035 µM | 3.38 µM | – | – |
| O=C1Nc2cc(C(=O)N3CCCC3)ccc2/C1=C(/Nc1ccc(CN2CCCCC2)cc1)c1ccccc1 | 0.245 µM | 0.696 µM | – | – |
| CCN(C)C(=O)c1ccc2c(c1)NC(=O)/C2=C(\Nc1ccccc1)c1ccccc1 | 2.59 µM | – | – | > 5 µM |
| CCNC(=O)c1ccc2c(c1)NC(=O)/C2=C(\Nc1ccc(N(C)C(=O)CN2CCN(C)CC2)cc1)c1ccccc1 | 0.009 µM | 1.37 µM | – | – |
| CCN(CC)CCNC(=O)c1ccc(N/C(=C2\C(=O)Nc3cc(C(=O)N(C)CC)ccc32)c2ccccc2)cc1 | 0.064 µM | 0.542 µM | – | – |
| CCN(C)C(=O)c1ccc2c(c1)NC(=O)/C2=C(\Nc1ccc(N(C)C(=O)CN2CCN(C)CC2)cc1)c1ccccc1 | 0.007 µM | 0.833 µM | – | – |
| CCN(C)C(=O)c1ccc2c(c1)NC(=O)/C2=C(\NC1CCN(C)CC1)c1ccccc1 | > 50 µM | > 10 µM | – | > 5 µM |
| CCN(C)C(=O)c1ccc2c(c1)NC(=O)/C2=C(\Nc1ccc(N(C)S(C)(=O)=O)cc1)c1ccccc1 | 0.231 µM | > 10 µM | – | – |
| CCNC(=O)c1ccc2c(c1)NC(=O)/C2=C\Nc1ccc(CN2CCCCC2)cc1 | 0.069 µM | 0.376 µM | – | – |
| O=C1Nc2cc(C(=O)NCCO)ccc2/C1=C(/Nc1ccc(CN2CCCCC2)cc1)c1ccccc1 | 0.43 µM | > 50 µM | – | – |
| CCN(C)C(=O)c1ccc2c(c1)NC(=O)/C2=C(\Nc1ccc(N(C)C(=O)CN(C)C)cc1)c1ccccc1 | 0.029 µM | 0.382 µM | – | – |
| CCNC(=O)c1ccc2c(c1)NC(=O)/C2=C(\Nc1ccc(N(CCN(C)C)C(C)=O)cc1)c1ccccc1 | 0.003 µM | 1.07 µM | – | – |
| CCN(C)C(=O)c1ccc2c(c1)NC(=O)/C2=C(\Nc1ccc(N(CC(=O)N(C)C)S(C)(=O)=O)cc1)c1ccccc1 | 0.086 µM | > 3 µM | – | – |
| CCNC(=O)c1ccc2c(c1)NC(=O)/C2=C\Nc1ccc(N(C)C(=O)CN(C)C)cc1 | 0.052 µM | 4.36 µM | – | – |
| CCN(C)C(=O)c1ccc2c(c1)NC(=O)/C2=C(\Nc1ccc(N(CCCN(C)C)C(C)=O)cc1)c1ccccc1 | 0.009 µM | 0.411 µM | – | – |
